Laboratory results: patent US9802996B2, “Glycosylated polypeptide and drug composition containing said polypeptide” (Glytech, Inc., priority 2011, dated 2017)

Experiments:
[1] = tested on: rat gastrointestinal obstruction model; experiment: Drug effect test in gastrointestinal obstruction model: intestinal fluid weight; assay type: in vivo, rats; conditions: for intestinal fluid weight compared to the vehicle: rats, subcutaneous 40 nmol/kg, 1 hour after administration; for Intestinal fluid weight: jejunum wet weight-dry weight, 40 μM solution 1 mL/kg subcutaneous 18 h after surgery, one hour after administration
Text: Anesthesia was introduced with inhalation of 2% isoflurane and laughing gas:oxygen=7:3, and this was maintained throughout the surgery. A median incision was made in the abdomen, and the jejunum at about 10 cm from the musculus suspensorius duodeni was ligated with a surgical suture. Then, the incision site was promptly sutured, and the rats were fasted until compound administration. In the sham treatment group, ligation of the jejunum was not performed, but the treatment of suturing the incision site after a median incision was made in the abdomen was performed.
(§1) Eighteen hours after the gastrointestinal obstruction surgery, this was subcutaneously administered into the dorsal cervix at a dosage of 1 mL/kg with a glass syringe and a 25 G injection needle (all from Terumo Corporation). As the vehicle group, saline without glycosylated polypeptide was similarly administered.
One hour after compound administration, a median incision was made in the abdomen under inhalation anesthesia, and 1.5 mL of blood was collected from the abdominal vena cava. Then, the ligated jejunum on the musculus suspensorius duodeni side was resected. The fluid and blood on the jejunum surface were removed with a paper towel, nerves, blood vessels, and fat attached to the jejunum was removed, this was cut into 6 cm lengths, and wet weight was measured. This was then dried at 36 degrees for 24 hours, and dry weight was measured. The intestinal fluid weight (mg) was calculated by wet weight-dry weight.

[2] = tested on: rat gastrointestinal obstruction model; experiment: Gastrointestinal obstruction model: blood parameters (amylase, LDH, CPK); assay type: in vivo, rats; conditions: for LDH activity compared to the vehicle / amylase activity compared to the vehicle: rats, blood 1 hour after administration; for Amylase / CPK / LDH: rat gastrointestinal obstruction model, blood collected 1 hour after subcutaneous administration of 40 μM solution at 1 mL/kg, 18 hours after surgery
Experimental: This experimental line was carried out as a test line to evaluate the promotion of intestinal fluid absorption or the secretory suppressing action, using the change in the intestinal fluid weight in the jejunum after bowel obstruction as an indicator. Moreover, blood parameters of deviation enzymes amylase (pancreas), lactate dehydrogenase (LDH, liver), and creatine phosphokinase (CPK, skeletal muscle, cardiac muscle etc.) were measured as indicators of tissue disorders.
The present test was consigned to Mitsubishi Chemical Medience Corporation and carried out. […] Anesthesia was introduced with inhalation of 2% isoflurane and laughing gas:oxygen=7:3, and this was maintained throughout the surgery. A median incision was made in the abdomen, and the jejunum at about 10 cm from the musculus suspensorius duodeni was ligated with a surgical suture. Then, the incision site was promptly sutured, and the rats were fasted until compound administration. In the sham treatment group, ligation of the jejunum was not performed, but the treatment of suturing the incision site after a median incision was made in the abdomen was performed.
as §1
One hour after compound administration, a median incision was made in the abdomen under inhalation anesthesia, and 1.5 mL of blood was collected from the abdominal vena cava.
The measuring methods employed were BG5B, UV-rate, and JSCC methods, respectively.

[3] = tested on: growth hormone (GH) production; experiment: GH production suppression test with rats; assay type: in vivo; conditions: for GH production suppression activity: administration of 10 or 100 nmol/kg;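 on all read-outs here: plasma GH measured by EIA in blood drawn 5 min after intravenous GRF stimulus, given 1 h after compound dosing, compared against saline-treated vehicle rats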
Experimental: This experimental line was carried out as a test line that can evaluate the pharmacological action of the glycosylated form on SSTR and its residence in blood after administration, with blood GH production amount as an indicator.
Moreover, GRF (GH releasing hormone, Growth hormone releasing factor) was used as the GH release enhancer. […] As heparin employed as the anticoagulant when collecting blood, Japanese Pharmacopeia heparin sodium injectable solution (Lot. B084, from Mochida Pharmaceutical Co., Ltd.) was used directly as stock solution.
As the control group, saline without glycosylated polypeptide was similarly administered (vehicle group). […] One hour after administration of the glycosylated form, i.e. after 50 minutes or more had passed under anesthesia, GRF was administered as the GH release enhancer to the tail vain at a dosage of 1 mL/kg with a glass syringe and an injection needle. Five minutes after administration of GRF, blood was collected from the rat cervical vein with a glass syringe containing heparin and an injection needle. 0.4 mL of the collected blood was left on ice for 20 minutes or more, then centrifuged (1,870×g, 4° C., 10 minutes), and 100 μL of the supernatant was taken as the plasma sample. As blank plasma, plasma obtained by similarly treating the blood collected from untreated rat cervical vein was employed. Plasma samples were frozen in storage until employed for measurement.
Measurement of GH concentration in the plasma sample obtained in the above 89-2 was performed with rat Growth Hormone EIA kit from SPI-Bio (SPI-Bio, A05104). The plasma sample was diluted with the assay buffer supplied in the EIA kit to 20, 100, and 500-folds as measurement samples. […] By multiplying the results obtained and the dilution ratio, the GH concentration was calculated.

SSTR1-SSTR5 = experiment: Competitive binding assay, statements over all receptors; set-up: species or system Human; conditions: Example 69-1, range over SSTR1-SSTR5
[4] = Pharmacokinetics test with rats (intravenous and subcutaneous administration)
Experimental: 0.2 mL of the collected blood was promptly mixed with 0.2 mL of the aprotinin-containing EDTA-PBS solution prepared in the above 70-1, and left on ice for 30 minutes or more. […] As blank plasma, plasma obtained by similarly treating the blood collected from untreated rat cervical vein was employed. Plasma samples were frozen in storage until employed for measurement.
The standard solution for creating a standard curve was prepared as follows. First, the blank plasma obtained in the above 70-2 was diluted with the assay buffer supplied in the EIA kit similarly to the plasma sample, and this was used as the assay buffer for standard solution preparation (for example, when diluting the plasma sample to 100-fold, 1/100 amount of blank plasma was added to the assay buffer supplied in the EIA kit, and this was used as the assay buffer for standard solution preparation).
Moreover, the predicted initial concentration (C0) was determined by the extrapolation method for intravenous administration, t1/2 and MRT were calculated, and the maximum plasma concentration (Cmax) was determined from the actual value for subcutaneous administration.
Moreover, the parameters obtained were employed to calculate bioavailability from the following mathematical formula. BA (%)=(AUC(sc)/Dose(sc))/(AUC(iv)/Dose(iv))
AUC(sc): AUC for subcutaneous administration (min·nM)
Dose(sc): Administration dose for subcutaneous administration (nmol/kg)
AUC(iv): AUC for intravenous administration (min·nM)
Dose(iv): Administration dose for intravenous administration (nmol/kg)

[5] = Table 8, plasma GH, dose 1 nmol/kg
[6] = Table 8, plasma GH, dose 3 nmol/kg
[7] = Table 8, plasma GH, dose 30 nmol/kg
[8] = Table 8, plasma GH, dose 10 nmol/kg
[9] = intravenous administration, Table 5A
[10] = subcutaneous administration, Table 5A
[11] = Table 7, plasma GH, dose 1 nmol/kg subcutaneous, GRF 1 hour after administration, blood 5 min after GRF
[12] = Table 7, plasma GH, dose 10 nmol/kg subcutaneous, GRF 1 hour after administration, blood 5 min after GRF
[13] = Table 8, plasma GH, dose 100 nmol/kg

C[C@@H](O)[C@@H]1NC(=O)[C@H](CCCCN)NC(=O)[C@@H](Cc2c[nH]c3ccccc23)NC(=O)[C@H](Cc2ccccc2)NC(=O)[C@@H](NC(=O)[C@H](N)Cc2ccccc2)CSSC[C@@H](C(=O)N[C@H](CO)[C@@H](C)O)NC1=O [Octreotide, reference compound]
intestinal fluid weight compared to the vehicle [1]: confirmed to have this effect
LDH activity compared to the vehicle [2]: low value compared to the vehicle
amylase activity compared to the vehicle [2]: equivalent to the vehicle

A9C(disialo)-SRIF28 [Example 3]
GH production suppression effect ([3]; rats, subcutaneous, 10 nmol/kg): 95-99%

C(disialo)-R-K-SRIF14 [Example 18]
affinity towards SSTR1-SSTR5, folds higher than S1C(disialo)-SRIF28 (SSTR1-SSTR5): 0.7-2.4 folds
GH [3, 5]: 912 ng/mL
GH [3, 6]: 291 ng/mL
GH [3, 7]: 12 ng/mL
GH production suppression effect ([3]; rats, subcutaneous, 10 nmol/kg): 95-99%
Intestinal fluid weight [1]: 584 ± 95 mg
intestinal fluid weight compared to the vehicle [1]: increase in the intestinal fluid weight compared to the vehicle
Amylase [2]: 985 ± 238 IU/L
CPK [2]: 415 ± 137 IU/L
LDH [2]: 228 ± 155 IU/L
LDH activity compared to the vehicle [2]: low value compared to the vehicle
amylase activity compared to the vehicle [2]: low value compared to the vehicle

E12C(disialo)-SRIF28 [Example 4]
GH production suppression effect ([3]; rats, subcutaneous, 10 nmol/kg): 95-99%

K14C(disialo)-SRIF28 [Example 6]
GH production suppression activity ([3]; rats): showed GH production suppression activity

N5C(disialo)-SRIF28 [Example 2]
GH production suppression effect ([3]; rats, subcutaneous, 10 nmol/kg): 95-99%

R13C(disialo)-SRIF28 [Example 5]
GH production suppression activity ([3]; rats): showed GH production suppression activity

S1-2C(asialo)-SRIF28 [Example 28]
affinity towards SSTR1-SSTR5, folds higher than S1C(disialo)-SRIF28 (SSTR1-SSTR5): 1.7-2.9 folds
GH production suppression effect ([3]; rats, subcutaneous, 10 nmol/kg): 70-99%
intestinal fluid weight compared to the vehicle [1]: increase in the intestinal fluid weight compared to the vehicle

S1-5C(disialo)-SRIF28 [Example 34]
GH [3, 8]: 842 ng/mL
GH production suppression activity ([3]; rats): showed GH production suppression activity
AUC [4, 9]: 6016 ± 873 nM·min
C0 [4, 9]: 752 ± 81.4 nM
MRT [4, 9]: 0.817 ± 0.101 h
t1/2 [4, 9]: 1.66 ± 0.233 h
AUC for subcutaneous administration, folds of S1C(disialo)-SRIF28 ([4]; subcutaneous): 1.8-3.1 folds
AUC [4, 10]: 5524 ± 633 nM·min
Cmax [4, 10]: 13.5 ± 2.85 nM
MRT [4, 10]: 6.48 ± 0.833 h
t1/2 [4, 10]: 4.52 ± 0.645 h
bioavailability (BA) ([4]; subcutaneous vs intravenous AUC): 92%
BA ([4]; subcutaneous vs intravenous administration, Table 5A): 92%

S1C(asialo)-SRIF28 [Example 27]
GH production suppression effect ([3]; rats, subcutaneous, 10 nmol/kg): 70-99%

S1C(disialo(Bn))-SRIF28 [Example 61]
GH production suppression effect ([3]; rats, subcutaneous, 10 nmol/kg): 95-99%

S1C(disialo(amide))-SRIF28 [Example 60]
GH production suppression effect ([3]; rats, subcutaneous, 10 nmol/kg): 70-99%

S1C(disialo(aminoethylamide))-SRIF28 [Example 59]
GH production suppression effect ([3]; rats, subcutaneous, 10 nmol/kg): 70-99%

S1C(disialo)-D-Trp22-SRIF28 [Example 15]
GH production suppression effect ([3]; rats, subcutaneous, 10 nmol/kg): 95-99%

S1C(disialo)-SRIF28 [Example 1]
GH [3, 11]: 490 ng/mL
GH [3, 12]: 17.1 ng/mL
GH [3, 5]: 787 ng/mL
GH [3, 6]: 182 ng/mL
GH [3, 8]: 15 ng/mL
GH [3, 7]: 8 ng/mL
GH [3, 13]: 7 ng/mL
dose from which GH production was suppressed ([3]; rats, subcutaneous): ≥ 1 nmol/kg
GH production suppression effect ([3]; rats, subcutaneous, 3-10 nmol/kg): 82-99%
Intestinal fluid weight [1]: 630 ± 83 mg
intestinal fluid weight compared to the vehicle [1]: increase in the intestinal fluid weight compared to the vehicle
Amylase [2]: 1164 ± 224 IU/L
CPK [2]: 455 ± 202 IU/L
LDH [2]: 338 ± 97 IU/L
amylase activity compared to the vehicle [2]: low value compared to the vehicle

S1C(disialo)•N5C(disialo)-SRIF28 [Example 21]
GH [3, 11]: 776 ng/mL
GH [3, 12]: 181 ng/mL
GH [3, 5]: 776 ng/mL
GH [3, 8]: 181 ng/mL
GH production suppression activity ([3]; rats): showed GH production suppression activity

S1C(disialo)•N5C(disialo)•A9C(disialo)-SRIF28 [Example 25]
GH [3, 12]: 833 ng/mL
GH ([3]; Table 7, plasma GH, dose 100 nmol/kg subcutaneous, GRF 1 hour after administration, blood 5 min after GRF): 151 ng/mL
GH [3, 13]: 151 ng/mL
GH production suppression activity ([3]; rats): showed GH production suppression activity

S1C(monosialo)-SRIF28 [Example 26]
GH production suppression effect ([3]; rats, subcutaneous, 10 nmol/kg): 70-99%
